Values of other authors as cited in US8193242B2 (XenoPort, Inc., priority 2005, dated 2012).

Settings: following oral administration

Duration of circulating levodopa: prolonged
Plasma concentrations of levodopa: low
SMILES: CC(C)(C)C(=O)Oc1ccc(C[C@H](N)C(=O)O)cc1O [NB-355]
